Results from PMC11306024, “Novel metabolite madeirone and neomarinone extracted from Streptomyces aculeoletus as marine antibiofilm and antifouling agents” (Frontiers in Chemistry, 2024).
≈ marks a conversion by molar mass, not a printed value.

Key:
[1] = tested on: M. hydrocarbonoclasticus; test: Antibiofilm activity (inhibition of biofilm formation); format: cell-based, Marinobacter hydrocarbonoclasticus DSM 8798; conditions: for Biofilm inhibition, up to (highest over tested concentrations) M. hydrocarbonoclasticus: 0.98-31.25 µg/mL tested; for inhibition at 15.6 µg/mL: 15.60 µg/mL
Description: (§1) To assess antimicrofouling activity, we selected five marine bacterial species as models: Marinobacter hydrocarbonoclasticus DSM 8798 (ATCC 49840), C. marina DSM 4741, Phaeobacter inhibens DSM 17,395, Pseusooceanicola batsensis DSM 15,984, and Micrococcus luteus DSM 20030 (ATCC 4698) ([Michael et al., 2016]). These strains, sourced from DSMZ (Leibniz Institute DSMZ—German Collection of Microorganisms and Cell Cultures), were cultured in liquid marine broth (Carl Roth GmbH, Karlsruhe, Germany) with agitation at 180 rpm or on agar-supplemented marine broth. Incubation temperatures were set at 28°C for M. hydrocarbonoclasticus and Cobetia marina, 30°C for P. inhibens and P. batsensis, while M. luteus was maintained at 37°C in Brain Heart Infusion broth (BHI, Becton Dickinson, GmbH, Heidelberg, Germany) under similar agitation conditions.
(§2) The antibiofilm potential of compounds (1) and (2) against the five marine bacterial species was investigated in 96-well polystyrene flat-bottom microplates (Nunclon Delta Surface, Thermo Scientific, Roskilde, Denmark), as described previously ([Bauermeister et al., 2019]; [Pereira et al., 2020]). In the initial screening, bacterial overnight cultures were diluted to an OD600 of 0.2 and incubated statically at appropriate temperatures. The cultures were tested at 31.25, 15.60, 7.81, 3.91, 1.95, 0.98 μg/mL concentrations (2-fold serial dilutions) of compounds (1) and (2), solubilized in DMSO, or left untreated. After 24 h (M. hydrocarbonoclasticus, C. marina) or 48 h (P. batsensis, P. inhibens, M. luteus) incubation, OD600 was measured. The planktonic cells and media were discarded, and the wells were washed twice with deionized water. Biofilms were fixed, stained, and quantified by measuring the OD600 after solubilization with acetic acid. Biofilm inhibition percentages were calculated relative to untreated bacterial species, using DMSO as a negative control and CuSO4 (0.16 μg/mL), as a positive control. All assays were performed in triplicate, and the results represent the mean and standard error of the mean (SEM). Statistical analysis was conducted using GraphPad Prism 8.0.2, employing one-way ANOVA followed by Dunnett’s multiple comparisons test against the negative control.

[2] = tested on: C. marina; test: Antibacterial activity (growth inhibition, OD600); format: cell-based, Cobetia marina DSM 4741; conditions: 24 h; for inhibition at 15.6 µg/mL: 15.60 µg/mL
Description: as §1
(§3) The antibacterial efficacy of compounds (1) and (2) was assessed in 96-well polystyrene flat-bottom microplates (Nunclon Delta Surface, Thermo Scientific, Roskilde, Denmark) following established procedures ([Bauermeister et al., 2019]). In the initial screening, bacterial overnight cultures were diluted to an optical density (OD600nm) of 0.2 and incubated statically at appropriate temperatures. The cultures were treated with the following final concentrations per well: 31.25, 15.60, 7.81, 3.91, 1.95, and 0.98 μg/mL (2-fold serial dilutions) of the compounds, solubilized in DMSO, or left untreated. After 24 h (M. hydrocarbonoclasticus, C. marina) or 48 h (P. batsensis, P. inhibens, M. luteus) incubation, optical density at 600 nm (OD600) was measured using a Molecular Devices Spectra Max 190. Growth inhibition percentages were calculated relatively to untreated bacterial species, using DMSO as a negative control. CuSO4 (0.16 μg/mL), a recognized antifouling agent, was used as positive control. All assays were conducted in triplicate, and the results represent the mean and standard error of the mean (SEM). Statistical analysis was carried out using GraphPad Prism 8.0.2 (San Diego, CA, United States), employing one-way ANOVA followed by Dunnett’s multiple comparisons test against the negative control.

[3] = tested on: P. batsensis; test: Antibacterial activity (growth inhibition, OD600); format: cell-based, Pseudo-oceanicola batsensis DSM 15984; conditions: 48 h; for inhibition at 15.6 µg/mL: 15.60 µg/mL
Description: as §1, §3

[4] = tested on: P. batsensis; test: Antibiofilm activity (inhibition of biofilm formation); format: cell-based, Pseudo-oceanicola batsensis DSM 15984; conditions: for inhibition at 0.98 µg/mL / inhibition at 1.95 µg/mL / inhibition at 3.91 µg/mL / inhibition at 7.81 µg/mL / inhibition at 15.6 µg/mL / inhibition at 31.25 µg/mL: 48 h; for inhibition at 15.6 µg/mL: 15.60 µg/mL
Description: as §1, §2

[5] = tested on: P. inhibens; test: as above; format: cell-based, Phaeobacter inhibens DSM 17395; conditions: for Biofilm inhibition, up to (highest over tested concentrations) P. inhibens: 0.98-31.25 µg/mL tested; for inhibition at 15.6 µg/mL: 15.60 µg/mL
Description: as §1, §2

[6] = tested on: M. galloprovincialis plantigrade larvae; test: Mussel plantigrade larvae anti-settlement bioassay; format: in vivo, Mytilus galloprovincialis; conditions: 15 h acute exposure, 95% confidence limits in brackets; for EC50: Mytilus galloprovincialis, 15 h, read-out: EC50 [Conf. Limits] anti-settlement
Description: The in vivo antimacrofouling activity of compounds (1) and (2) was evaluated against mussel M. galloprovincialis adhesive larvae (plantigrades) in an acute bioassay. Juvenile mussel aggregates were harvested from the intertidal rocky shore during low spring tides at Memória beach, Matosinhos, Portugal. In the laboratory, precisely before the bioassays, mussel plantigrade larvae were meticulously screened and isolated from the juvenile aggregates using a binocular microscope (Olympus SZX2-ILLT, Hamburg, Germany). The isolated larvae were then washed with filtered seawater to eliminate organic debris, and competent plantigrade larvae, characterized by foot exploratory behavior, were selected for the exposure bioassays, following established protocols ([Almeida et al., 2017]; [Almeida et al., 2020]; [Antunes et al., 2019]; [Mabrouk et al., 2020]). Plantigrades were exposed in 24-well polystyrene plates for 15 h in darkness at 18°C. DMSO served as the solvent for the testing compounds in stock and working solutions. The DMSO concentration in the tested solutions was consistently maintained at 0.1%. Each condition was replicated in four wells, with five larvae per well. Two negative controls, one with ultra-pure water and other with DMSO were included in all bioassays, along with a positive control using 0.16 μg/mL CuSO4, as a reference antifouling agent. The anti-settlement bioactivity was assessed based on the presence or absence of fixed byssal threads produced by each individual larva for all tested conditions. […] EC50 values for each compound were calculated using Probit regression analysis. Significance was considered at p < 0.01, and 95% lower and upper confidence limits (95% LCL; UCL). The software IBM SPSS Statistics 28 was used for statistical analysis. The therapeutic ratio (LC50/EC50) was employed to evaluate the effectiveness versus the toxicity of the compounds ([Qian et al., 2009]; [Almeida and Vasconcelos, 2015]).

Compound	Biofilm inhibition, up to (highest over tested concentrations) M. hydrocarbonoclasticus [1]	inhibition at 7.81 µg/mL ([1]; Marinobacter nauticus, 24 h)	inhibition at 15.6 µg/mL ([1]; Marinobacter nauticus, 24 h)	inhibition at 31.25 µg/mL ([1]; Marinobacter nauticus, 24 h)	inhibition at 7.81 µg/mL ([2]; Cobetia marina)	inhibition at 15.6 µg/mL ([2]; Cobetia marina)	inhibition at 31.25 µg/mL ([2]; Cobetia marina)	inhibition at 1.95 µg/mL [3]	inhibition at 3.91 µg/mL [3]	inhibition at 7.81 µg/mL [3]	inhibition at 15.6 µg/mL [3]	inhibition at 31.25 µg/mL [3]	inhibition at 0.98 µg/mL [4]	inhibition at 1.95 µg/mL [4]	inhibition at 3.91 µg/mL [4]	inhibition at 7.81 µg/mL [4]	inhibition at 15.6 µg/mL [4]	inhibition at 31.25 µg/mL [4]	Biofilm inhibition (%) P. inhibens ([5]; 0.98 µg/mL, 48 h)	Biofilm inhibition (%) P. inhibens ([5]; 1.95 µg/mL, 48 h)	further results
CC1=CCC[C@@H](C)[C@]1(C)CC[C@@]1(C)c2c(O)cc3c(c2O[C@@H]1C)C(=O)C=C(CO)C3=O (relative stereo) [compound 1, madeirone]	up to 60%	14.2 ± 3.6%	33.9 ± 2.1%	60.1 ± 0.5%	10 ± 2.1%	7.7 ± 4%	12.7 ± 2.7%	26.6 ± 0.8%	31 ± 0.7%	35.9 ± 0.5%	> 40%	> 40%	10.8 ± 1.7%	17.9 ± 2.4%	24.9 ± 2.9%	34.8 ± 2.7%	49.1 ± 0.7%	59.2 ± 0.4%	N.I.	N.I.	Biofilm inhibition (%) M. hydrocarbonoclasticus ([1]; 0.98 µg/mL, 24 h): N.I.; Biofilm inhibition (%) M. hydrocarbonoclasticus ([1]; 1.95 µg/mL, 24 h): N.I.; Biofilm inhibition (%) M. hydrocarbonoclasticus ([1]; 3.91 µg/mL, 24 h): N.I.; Growth inhibition (%) C. marina ([2]; 0.98 µg/mL): N.I.; Growth inhibition (%) C. marina ([2]; 1.95 µg/mL): N.I.; Growth inhibition (%) C. marina ([2]; 3.91 µg/mL): N.I.; inhibition at 0.98 µg/mL ([3]; 0.98 µg/mL): 20.7 ± 1.1%; Biofilm inhibition, up to (highest over tested concentrations) P. inhibens [5]: up to 66%; inhibition at 3.91 µg/mL ([5]; Phaeobacter inhibens, 3.91 µg/mL, 48 h): 10.2 ± 3.7%; inhibition at 7.81 µg/mL ([5]; Phaeobacter inhibens, 48 h): 33.9 ± 1.3%; inhibition at 15.6 µg/mL ([5]; Phaeobacter inhibens, 48 h): 53 ± 1%; inhibition at 31.25 µg/mL ([5]; Phaeobacter inhibens, 48 h): 66.7 ± 0.3%; EC50 [Conf. Limits] anti-settlement [6]: 1.755 (1.308–5.492) µg/mL; EC50 [6]: 1.76 µg/mL (≈ 4.15 µM)
CC1=CCC[C@@H](C)[C@]1(C)CC[C@@]1(C)c2c(O)cc3c(c2O[C@@H]1C)C(=O)C(C)=C(O)C3=O [compound 2, neomarinone]	≤ 56%	54.4 ± 1.8%	56.7 ± 1.5%	29 ± 10.1%	9.2 ± 2.1%	7.2 ± 2.9%	1.1 ± 2%	0.3 ± 0.5%	4.2 ± 0.3%	0%	0.9 ± 0.4%	11.1 ± 0.4%	11.7 ± 6.2%	13.9 ± 5.7%	19.4 ± 4%	26.3 ± 5.9%	34.9 ± 4.8%	40.7 ± 4.7%	N.I.	N.I.	inhibition at 0.98 µg/mL ([1]; Marinobacter nauticus, 0.98 µg/mL, 24 h): 49.2 ± 6.2%; inhibition at 1.95 µg/mL ([1]; Marinobacter nauticus, 1.95 µg/mL, 24 h): 58.1 ± 1.6%; inhibition at 3.91 µg/mL ([1]; Marinobacter nauticus, 3.91 µg/mL, 24 h): 54.5 ± 3.6%; inhibition at 0.98 µg/mL ([2]; Cobetia marina, 0.98 µg/mL): 10.7 ± 2.2%; inhibition at 1.95 µg/mL ([2]; Cobetia marina, 1.95 µg/mL): 10.8 ± 3.1%; inhibition at 3.91 µg/mL ([2]; Cobetia marina, 3.91 µg/mL): 6.5 ± 1.2%; Growth inhibition (%) P. batsensis ([3]; 0.98 µg/mL): N.I.; Biofilm inhibition, up to (highest over tested concentrations) P. batsensis ([4]; 0.98-31.25 µg/mL tested): up to 40%; Biofilm inhibition (%) P. inhibens ([5]; 3.91 µg/mL, 48 h): N.I.; Biofilm inhibition, up to (highest over tested concentrations) P. inhibens [5]: up to 41%; inhibition at 7.81 µg/mL ([5]; Phaeobacter inhibens, 48 h): 11.6 ± 1.8%; inhibition at 15.6 µg/mL ([5]; Phaeobacter inhibens, 48 h): 30 ± 0.6%; inhibition at 31.25 µg/mL ([5]; Phaeobacter inhibens, 48 h): 41.3 ± 0.9%; EC50 [Conf. Limits] anti-settlement [6]: 0.119 (0.015–0.253) µg/mL; EC50 [6]: 0.12 µg/mL (≈ 0.283 µM)
